Experiments:
[1] = Spectral properties in water (absorption, emission, quantum yield, lifetime); format: physicochemical; details: for φf (quantum yield): relative to SPQ (φf=0.53 in water)
Procedure: (§1) All steady state fluorescence measurements were performed in a 4×1×1 cm fluorometric plastic cuvette, using a Varian Cary Eclipse fluorometer, and all absorption measurements were performed using a Varian UV/VIS 50 spectrophotometer.
Time-solved intensity decays were measured using reverse start-stop time-correlated single-photon timing (TCSPC) with a Becker and Hickl Gmbh 630 SPC PC card and unamplified MCP-PMT. Vertically polarized excitation at ˜372 nm was obtained using a pulsed LED source (1 MHz repetition rate) and a dichroic sheet polarizer. The instrumental response function was ˜1.1 ns fwhm. The emission was collected at the magic angle (54.7°) using a long pass filter (Edmund Scientific) which cut-off the excitation wavelengths.
The intensity decays were analyzed in terms of the multi-exponential model:
[formula] where αi are the amplitudes and τi are the decay times, Σαi=1.0. The fractional contribution of each component to the steady-state intensity is given by:
The mean lifetime of the excited state is given by:
The values of αi and τi were determined by non-linear least squares impulse reconvolution with a goodness-of-fit χ^2R criterion.
A representative absorption and emission spectra for o-BMQBA in water is shown in FIG. 3B, which corresponds to all three isomers and BMQ. BMQBA has a strong absorption band at ˜320 nm, which can be assigned to n→π* transitions, and an excitation band at ˜427 nm, and as such, has a large Stokes shift of about 100 nm, which is ideal for fluorescence sensing. The quantum yield values of the BMQBA compounds in water relative to N-(3-sulfopropyl)-6-methoxyquinolinium (SPQ) (φf=0.53 in water) are shown in Table 1. The low quantum yields and relatively short lifetime of the BMQBA and BMQ molecules can be attributed to a photo-induced electron transfer, whereby the phenyl ring acts as the donor and the quinolinium moiety acts as the acceptor.
A representative absorption and emission spectra for o-BMOQBA in water is shown in FIG. 3A, which corresponds to all three isomers and BMOQ. BMOQBA has a strong absorption band at ˜345 nm, which can be assigned to n→π* transitions, and an excitation band at ˜450 nm, and as such, has a large Stokes shift of about 100 nm, which is ideal for fluorescence sensing. The quantum yield values of the BMOQBA compounds in water relative to N-(3-sulfopropyl)-6-methoxyquinolinium (SPQ) (φf=0.53 in water) are shown in Table 2. […] We can only speculate as to the quantum yield differences between the m-BMOQBA and p-BMOQBA compounds, which may be attributed to through-bond and through-space mechanisms.

[2] = Fluorescence intensity response to fructose in solution
Procedure: as §1
The emission spectra of o-BMQBA in the presence of varying concentrations of fructose and glucose are shown in FIG. 4A and FIG. 4B, respectively. It can be seen that the fluorescence intensity of o-BMQBA in pH 7.5 phosphate buffer is inversely proportional to the glucose and fructose concentrations. […] A plot of the intensity ratio, I′/I, at λ=427 nm, where I′ and I represent the fluorescence intensities in the absence and presence of sugar, respectively, is shown in FIG. 4C. […] It is noted that the concentration of fructose in blood is ˜10 times lower than glucose, a relationship which is also thought to occur in tears (N. Dicesare, et. al., J. Bio. Med. Opt., 7(4), 538-545 (2002)).
The intensity ratio for o-BMQBA in buffered media (pH 5-8) at various glucose concentrations is shown in FIG. 8A, wherein I′ corresponds to the intensity in the absence of glucose and I corresponds to the intensity at the specified glucose concentration. In addition, the intensity ratio for o-BMQBA in buffered media (pH 5-8) at low glucose concentrations, typical of those found in tears, is shown in FIG. 8B. Correspondingly, the intensity ratio for o-BMQBA in buffered media (pH 5-8) at various fructose concentrations is shown in FIGS. 9A and 9B.
Because physiological fluids contain chloride ions, which are well known quenchers of quinolinium fluorescence (Geddes, C. D., Meas. Sci. Technol., 12(9), R53-R88 (2001); Geddes, C. D., et al., J. Heterocyclic Chem., 36(4), 949-951 (1999); Geddes, C. D., et al., Anal. Biochem., 293(1), 60-66 (2001)), the fluorescence intensity and intensity ratios of o-BMQBA in pH 7.5 buffer having 100 mM NaCl with varying quantities of fructose or glucose was measured and shown in FIGS. 10 and 11, respectively, where I′ corresponds to the intensity in the absence of fructose and I corresponds to the intensity at the specified fructose concentration. It can be seen that although chloride quenched the intensity of the emission in the presence of fructose, the intensity ratio change for fructose is still significant, amounting to a 4-fold decrease in fluorescence intensity at 60 mM fructose (see FIG. 10B). The quenching effect was less significant at lower concentrations of fructose (see FIG. 10C) and for glucose concentrations, both high and low (see FIGS. 11B and 11C). This minimal quenching effect for BMQBA is supported by the calculated Stern-Volmer constants, KSV, for the BMQBA compounds in water, which were determined to be 44.0 M^−1, 20.0 M^−1, 17.0 M^−1 and 35.0 M^−1 for o-BMQBA, m-BMQBA, p-BMQBA and BMQ, respectively. These are small quenching constants that are readily accounted for using simple corrections in the fluorescence signal, as readily determined by one skilled in the art of fluorescence.
The intensity ratio at λ=450 nm for o-BMOQBA in buffered media (pH 5-8) at various glucose concentrations is shown in FIG. 16A, wherein I′ corresponds to the intensity in the absence of glucose and I corresponds to the intensity at the specified glucose concentration. In addition, the intensity ratio for o-BMOQBA in buffered media (pH 5-8) at low glucose concentrations, typical of those found in tears, is shown in FIG. 16B. Correspondingly, the intensity ratio for o-BMOQBA in buffered media (pH 5-8) at various fructose concentrations is shown in FIGS. 17A and 17B.
Each BAF was tested to determine the usefulness of these BAFs with regard to tear glucose sensing in a contact lens. Towards that end, both solution-based and doped contact lens-based measurements, the methods of which are described above, were performed and subsequently compared. […]

Structure (SMILES) | λabs (max) [1] | λem (max) [1] | τf (mean lifetime) [1] | φf (quantum yield) [1] | decrease in fluorescence intensity ([2]; 60 mM fructose, pH 7.5 buffer with 100 mM NaCl) | decrease in fluorescence intensity ([2]; 0.50 mM fructose, pH 6 to 7 range, buffered solution)
Cc1ccc2c(ccc[n+]2Cc2ccccc2B(O)O)c1.[Br-] [o-BMQBA, N-(2-boronobenzyl)-6-methylquinolinium bromide] | 319 nm | 427 nm | 4.01 ns | 0.043 | 4 fold | –
COc1ccc2c(ccc[n+]2Cc2ccccc2B(O)O)c1.[Br-] [o-BMOQBA, N-(2-boronobenzyl)-6-methoxyquinolinium bromide] | – | 450 nm | 26.7 ns | 0.46 | – | 10-40%

Reference: patent publication US7718804B2, “Quaternary nitrogen heterocyclic compounds for detecting aqueous monosaccharides in physiological fluids” (University of Maryland Biotechnology Institute, priority 2003, dated 2010)
